Assay results: ChEMBL document CHEMBL4831492, “Design and synthesis of 2-(2-isonicotinoylhydrazineylidene)propanamides as InhA inhibitors with high antitubercular activity” (Eur J Med Chem, 2021)
Converted amounts (≈) assume the structure as drawn.

Experiments:
Mycobacterium kansasii [1] = test: Antimycobacterial activity against drug resistant Mycobacterium kansasii 6509/96 assessed as minimal inhibitory concentration required for complete inhibition of mycobacterial growth incubated for 7 days; format: functional; conditions: 6509/96, 168 h, time 7 day
Mycobacterium kansasii [2] = test: Antimycobacterial activity against drug resistant Mycobacterium kansasii 6509/96 assessed as minimal inhibitory concentration required for complete inhibition of mycobacterial growth incubated for 21 days; format: functional; conditions: 6509/96, 504 h, time 21 day
Mycobacterium kansasii [3] = test: Antimycobacterial activity against drug resistant Mycobacterium kansasii 6509/96 assessed as minimal inhibitory concentration required for complete inhibition of mycobacterial growth incubated for 14 days; format: functional; conditions: 6509/96, 336 h, time 14 day
[4] = system: Mycobacterium tuberculosis; test: Antimycobacterial activity against drug susceptible Mycobacterium tuberculosis H37Rv assessed as minimal inhibitory concentration required for complete inhibition of mycobacterial growth incubated for 21 days; format: functional; conditions: 504 h, time 21 day
Mycobacterium avium [5] = test: Antimycobacterial activity against drug resistant Mycobacterium avium 330/88 assessed as minimal inhibitory concentration required for complete inhibition of mycobacterial growth incubated for 21 days; format: functional; conditions: 330/88, 504 h, time 21 day
Mycobacterium avium [6] = test: Antimycobacterial activity against drug resistant Mycobacterium avium 330/88 assessed as minimal inhibitory concentration required for complete inhibition of mycobacterial growth incubated for 14 days; format: functional; conditions: 330/88, 336 h, time 14 day
[7] = system: Mycobacterium tuberculosis; test: Antimycobacterial activity against drug susceptible Mycobacterium tuberculosis H37Rv assessed as minimal inhibitory concentration required for complete inhibition of mycobacterial growth incubated for 14 days; format: functional; conditions: 336 h, time 14 day
HepG2 [8] = test: Cytostatic activity in human HepG2 cells assessed as reduction in cell viability incubated overnight followed by compound washout and further incubated for 72 hrs in medium containing serum by MTT assay; format: functional, cell-based; conditions: HepG2, 72 h
HepG2 [9] = test: Cytotoxicity against human HepG2 cells assessed as reduction in cell viability incubated overnight followed by compound washout by MTT assay; format: cell-based
[10] = Selectivity index, ratio of CC50 for cytotoxicity against human HepG2 cells to MIC for antimycobacterial activity against drug susceptible Mycobacterium tuberculosis H37Rv; format: toxicity, cell-based; conditions: read-out: Selectivity Index
Mycobacterium kansasii [11] = test: Antimycobacterial activity against drug resistant Mycobacterium kansasii 235/80 assessed as minimal inhibitory concentration required for complete inhibition of mycobacterial growth incubated for 14 days; format: functional; conditions: 235/80, 336 h, time 14 day
[12] = Selectivity index, ratio of CC50 for cytotoxicity against human HepG2 cells to MIC for antimycobacterial activity against drug susceptible Mycobacterium […]; format: toxicity, cell-based; conditions: read-out: Selectivity Index
Mycobacterium kansasii [13] = test: Antimycobacterial activity against drug resistant Mycobacterium kansasii 235/80 assessed as minimal inhibitory concentration required for complete inhibition of mycobacterial growth incubated for 7 days; format: functional; conditions: 235/80, 168 h, time 7 day
Mycobacterium kansasii [14] = test: Antimycobacterial activity against drug resistant Mycobacterium kansasii 235/80 assessed as minimal inhibitory concentration required for complete inhibition of mycobacterial growth incubated for 21 days; format: functional; conditions: 235/80, 504 h, time 21 day

Row | SMILES | MIC (Mycobacterium kansasii [1]) | MIC (Mycobacterium kansasii [2]) | MIC (Mycobacterium kansasii [3]) | MIC [4] | MIC (Mycobacterium avium [5]) | MIC (Mycobacterium avium [6]) | MIC [7] | IC50 (HepG2 [8]) | IC50 (HepG2 [9]) | selectivity ratio [10] | MIC (Mycobacterium kansasii [11]) | selectivity ratio [12] | MIC (Mycobacterium kansasii [13]) | MIC (Mycobacterium kansasii [14])
1 | C/C(=N\NC(=O)c1ccncc1)C(=O)Nc1ccc(C(F)(F)C(F)(F)C(F)(F)C(F)(F)C(F)(F)C(F)(F)C(F)(F)C(F)(F)F)cc1 | > 1000 µM | > 1000 µM | > 1000 µM | 0.5 µM (≈ 0.35 µg/mL) | > 1000 µM | > 1000 µM | 0.25 µM (≈ 0.175 µg/mL) |  |  |  |  |  |  | 
2 | C/C(=N\NC(=O)c1ccncc1)C(=O)Nc1cc(Cl)cc(Cl)c1 | 16 µM (≈ 5.62 µg/mL) | 32 µM (≈ 11.2 µg/mL) | 16 µM (≈ 5.62 µg/mL) | 0.25 µM (≈ 0.0878 µg/mL) | > 250 µM | > 250 µM | ≤ 0.25 µM | > 50 µM | > 50 µM | > 200 | > 250 µM | > 1.56 | > 250 µM | > 250 µM
3 | C/C(=N\NC(=O)c1ccncc1)C(=O)Nc1cccc(Br)c1 | 4 µM (≈ 1.44 µg/mL) | 8 µM (≈ 2.89 µg/mL) | 8 µM (≈ 2.89 µg/mL) | 0.125 µM (≈ 0.0451 µg/mL) | > 1000 µM | > 1000 µM | 0.125 µM (≈ 0.0451 µg/mL) |  |  |  |  |  |  | 
4 | C/C(=N\NC(=O)c1ccncc1)C(=O)Nc1ccc(Br)cc1 | 4 µM (≈ 1.44 µg/mL) | 16 µM (≈ 5.78 µg/mL) | 8 µM (≈ 2.89 µg/mL) | 0.125 µM (≈ 0.0451 µg/mL) | 250 µM (≈ 90.3 µg/mL) | 250 µM (≈ 90.3 µg/mL) | 0.06 µM (≈ 0.0217 µg/mL) | > 50 µM | > 50 µM | > 400 | 16 µM (≈ 5.78 µg/mL) | > 3.12 | 16 µM (≈ 5.78 µg/mL) | 16 µM (≈ 5.78 µg/mL)
5 | C/C(=N\NC(=O)c1ccncc1)C(=O)Nc1ccc(Cl)c(Cl)c1 | 4 µM (≈ 1.4 µg/mL) | 16 µM (≈ 5.62 µg/mL) | 8 µM (≈ 2.81 µg/mL) | 0.06 µM (≈ 0.0211 µg/mL) | > 250 µM | > 250 µM | 0.06 µM (≈ 0.0211 µg/mL) | > 50 µM | > 50 µM | > 833 | > 250 µM | > 3.12 | > 250 µM | > 250 µM
6 | C/C(=N\NC(=O)c1ccncc1)C(=O)Nc1ccc(OC(F)F)cc1 | 2 µM (≈ 0.697 µg/mL) | 8 µM (≈ 2.79 µg/mL) | 4 µM (≈ 1.39 µg/mL) | 0.5 µM (≈ 0.174 µg/mL) | > 1000 µM | > 1000 µM | 0.25 µM (≈ 0.0871 µg/mL) |  |  |  |  |  |  | 
7 | C/C(=N\NC(=O)c1ccncc1)C(=O)Nc1cccc(C(F)(F)F)c1 | 2 µM (≈ 0.701 µg/mL) | 8 µM (≈ 2.8 µg/mL) | 4 µM (≈ 1.4 µg/mL) | 0.25 µM (≈ 0.0876 µg/mL) | > 1000 µM | > 1000 µM | 0.125 µM (≈ 0.0438 µg/mL) |  |  |  |  |  |  | 
8 | C/C(=N\NC(=O)c1ccncc1)C(=O)Nc1ccc(F)cc1 | 2 µM (≈ 0.601 µg/mL) | 8 µM (≈ 2.4 µg/mL) | 4 µM (≈ 1.2 µg/mL) | 0.25 µM (≈ 0.0751 µg/mL) | > 250 µM | > 250 µM | 0.25 µM (≈ 0.0751 µg/mL) | > 50 µM | > 50 µM | > 200 | 125 µM (≈ 37.5 µg/mL) | > 625 | 62.5 µM (≈ 18.8 µg/mL) | 250 µM (≈ 75.1 µg/mL)
9 | C/C(=N\NC(=O)c1ccncc1)C(=O)Nc1cc(C(F)(F)F)cc(C(F)(F)F)c1 | 32 µM (≈ 13.4 µg/mL) | 32 µM (≈ 13.4 µg/mL) | 32 µM (≈ 13.4 µg/mL) | 1 µM (≈ 0.418 µg/mL) | > 1000 µM | > 1000 µM | 1 µM (≈ 0.418 µg/mL) |  |  |  |  |  |  | 
10 | NNC(=O)c1ccncc1 [ISONIAZID] | 4 µM (≈ 0.549 µg/mL) | 8 µM (≈ 1.1 µg/mL) | 8 µM (≈ 1.1 µg/mL) | 1 µM (≈ 0.137 µg/mL) | > 250 µM | > 250 µM | 0.5 µM (≈ 0.0686 µg/mL) |  |  |  | > 250 µM |  | > 250 µM | > 250 µM
11 | C/C(=N\NC(=O)c1ccncc1)C(=O)Nc1cccc(I)c1 | 4 µM (≈ 1.63 µg/mL) | 8 µM (≈ 3.27 µg/mL) | 8 µM (≈ 3.27 µg/mL) | 0.5 µM (≈ 0.204 µg/mL) | > 1000 µM | > 1000 µM | 0.125 µM (≈ 0.051 µg/mL) |  |  |  |  |  |  | 
12 | C/C(=N\NC(=O)c1ccncc1)C(=O)Nc1cc(Cl)c(Cl)c(Cl)c1 | 16 µM (≈ 6.17 µg/mL) | 32 µM (≈ 12.3 µg/mL) | 16 µM (≈ 6.17 µg/mL) | 1 µM (≈ 0.386 µg/mL) | > 250 µM | > 250 µM | 0.5 µM (≈ 0.193 µg/mL) |  |  |  | 125 µM (≈ 48.2 µg/mL) |  | 62.5 µM (≈ 24.1 µg/mL) | 250 µM (≈ 96.4 µg/mL)
